Reference: patent EP0180045A2, “Benzanthrin compounds” (ABBOTT LABORATORIES, priority 1984, dated 1986)
Values after ≈ are worked out from the molar mass of the structure shown.

Columns and labels:
Acinetobacter CMX 669 = assay: MIC, agar dilution method; assay type: cell-based; settings: Brain Heart Infusion agar, 10^5 CFU inoculum
Experimental: (§1) The antibacterial activity of the compounds of the invention against a variety of microorganisms is illustrated in Table 3. Minimum inhibitory concentrations were determined by the agar dilution method using brain heart infusion agar with 10 ^5 CFU (colony forming units) as the inoculum.

[1] = system: Enterobacter aerogenes ATCC 13048; assay: MIC, agar dilution method; assay type: cell-based; settings: Brain Heart Infusion agar, 10^5 CFU inoculum
Experimental: as §1

Escherichia coli DC-2 = assay: MIC, agar dilution method; assay type: cell-based; settings: Brain Heart Infusion agar, 10^5 CFU inoculum
Experimental: as §1

Escherichia coli Juhl = assay: MIC, agar dilution method; assay type: cell-based; settings: Brain Heart Infusion agar, 10^5 CFU inoculum
Experimental: as §1

Escherichia coli SS = assay: MIC, agar dilution method; assay type: cell-based; settings: Brain Heart Infusion agar, 10^5 CFU inoculum
Experimental: as §1

[2] = system: Klebsiella pneumoniae ATCC 8045; assay: MIC, agar dilution method; assay type: cell-based; settings: Brain Heart Infusion agar, 10^5 CFU inoculum
Experimental: as §1

[3] = system: Lactobacillus casei ATCC 7469; assay: MIC, agar dilution method; assay type: cell-based; settings: Brain Heart Infusion agar, 10^5 CFU inoculum
Experimental: as §1

[4] = system: Pseudomonas aeruginosa 5007; assay: MIC, agar dilution method; assay type: cell-based; settings: Brain Heart Infusion agar, 10^5 CFU inoculum
Experimental: as §1

Pseudomonas cepacia 2961 = assay: MIC, agar dilution method; assay type: cell-based; settings: Brain Heart Infusion agar, 10^5 CFU inoculum
Experimental: as §1

Sarcina lutea 9341 = assay: MIC, agar dilution method; assay type: cell-based; settings: Brain Heart Infusion agar, 10^5 CFU inoculum
Experimental: as §1

[5] = system: Staphylococcus aureus 45 RAR2; assay: MIC, agar dilution method; assay type: cell-based; settings: Brain Heart Infusion agar, 10^5 CFU inoculum
Experimental: as §1

Staphylococcus aureus 45 = assay: MIC, agar dilution method; assay type: cell-based; settings: Brain Heart Infusion agar, 10^5 CFU inoculum
Experimental: as §1

[6] = system: Staphylococcus aureus A5177; assay: MIC, agar dilution method; assay type: cell-based; settings: Brain Heart Infusion agar, 10^5 CFU inoculum
Experimental: as §1

[7] = system: Staphylococcus aureus ATCC 6538P; assay: MIC, agar dilution method; assay type: cell-based; settings: Brain Heart Infusion agar, 10^5 CFU inoculum
Experimental: as §1

[8] = system: Staphylococcus aureus CMX 686b; assay: MIC, agar dilution method; assay type: cell-based; settings: Brain Heart Infusion agar, 10^5 CFU inoculum
Experimental: as §1

[9] = system: Staphylococcus epidermidis 3519 RAR1; assay: MIC, agar dilution method; assay type: cell-based; settings: Brain Heart Infusion agar, 10^5 CFU inoculum
Experimental: as §1

[10] = system: Staphylococcus epidermidis 3519; assay: MIC, agar dilution method; assay type: cell-based; settings: Brain Heart Infusion agar, 10^5 CFU inoculum
Experimental: as §1

[11] = system: Streptococcus agalactiae CMX 508; assay: MIC, agar dilution method; assay type: cell-based; settings: Brain Heart Infusion agar, 10^5 CFU inoculum
Experimental: as §1

[12] = system: Streptococcus bovis A5169; assay: MIC, agar dilution method; assay type: cell-based; settings: Brain Heart Infusion agar, 10^5 CFU inoculum
Experimental: as §1

[13] = system: Streptococcus faecium ATCC 8043; assay: MIC, agar dilution method; assay type: cell-based; settings: Brain Heart Infusion agar, 10^5 CFU inoculum
Experimental: as §1

[14] = system: Streptococcus pyogenes 930; assay: MIC, agar dilution method; assay type: cell-based; settings: Brain Heart Infusion agar, 10^5 CFU inoculum
Experimental: as §1

[15] = system: Streptococcus pyogenes EES61; assay: MIC, agar dilution method; assay type: cell-based; settings: Brain Heart Infusion agar, 10^5 CFU inoculum
Experimental: as §1

KB cells = assay: KB antitumor test (cytotoxicity); assay type: cell-based, human; settings: Tumor Cell 9KB; dose which inhibits growth to 50% of control growth by 3 days after drug addition
Experimental: The cytotoxic activity of the compounds of the invention can be tested by a KB antitumor test. KB cells are derived from human epidermoid carcinoma of the mouth and are cultivated on Eagel's basal medium plus 10% serum. Stock cells are fed 24 hours before testing. Test drug is added on day 0 or day 1. Results are expressed as the dose which inhibits growth to 50% of control growth by 3 days after drug addition.
When the K8 antitumor test was conducted on benzanthrins A and B, the following test data resulted: […]

Cc1cc2cc(O)c3c(c2c(O[C@@H]2C[C@H](N(C)C)[C@@H](O)[C@@H](C)O2)c1[C@@H]1C[C@H](N(C)C)[C@@H](O)[C@H](C)O1)C(=O)c1cccc(O)c1C3=O [Benzanthrin A]
MIC (Acinetobacter CMX 669): 100 µg/mL (≈ 158 µM)
MIC [1]: 100 µg/mL (≈ 158 µM)
MIC (Escherichia coli DC-2): 100 µg/mL (≈ 158 µM)
MIC (Escherichia coli Juhl): 100 µg/mL (≈ 158 µM)
MIC (Escherichia coli SS): 3.1 µg/mL (≈ 4.88 µM)
MIC [2]: 100 µg/mL (≈ 158 µM)
MIC [3]: 0.78 µg/mL (≈ 1.23 µM)
MIC [4]: 100 µg/mL (≈ 158 µM)
MIC (Pseudomonas cepacia 2961): 100 µg/mL (≈ 158 µM)
MIC (Sarcina lutea 9341): 1.56 µg/mL (≈ 2.46 µM)
MIC [5]: 3.1 µg/mL (≈ 4.88 µM)
MIC (Staphylococcus aureus 45): 3.1 µg/mL (≈ 4.88 µM)
MIC [6]: 3.1 µg/mL (≈ 4.88 µM)
MIC [7]: 3.1 µg/mL (≈ 4.88 µM)
MIC [8]: 3.1 µg/mL (≈ 4.88 µM)
MIC [9]: 3.1 µg/mL (≈ 4.88 µM)
MIC [10]: 3.1 µg/mL (≈ 4.88 µM)
MIC [11]: 0.78 µg/mL (≈ 1.23 µM)
MIC [12]: 0.39 µg/mL (≈ 0.614 µM)
MIC [13]: 1.56 µg/mL (≈ 2.46 µM)
MIC [14]: 0.2 µg/mL (≈ 0.315 µM)
MIC [15]: 1.56 µg/mL (≈ 2.46 µM)
ED50 (KB cells): 100 to 300 µg/mL

Cc1cc2cc(O)c3c(c2c(O[C@@H]2C[C@H](N(C)C)[C@H](O)[C@@H](C)O2)c1[C@@H]1C[C@H](N(C)C)[C@@H](O)[C@H](C)O1)C(=O)c1cccc(O)c1C3=O [Benzanthrin B]
MIC [1]: 100 µg/mL (≈ 158 µM)
MIC (Escherichia coli DC-2): 100 µg/mL (≈ 158 µM)
MIC (Escherichia coli Juhl): 100 µg/mL (≈ 158 µM)
MIC (Escherichia coli SS): 6.2 µg/mL (≈ 9.77 µM)
MIC [2]: 100 µg/mL (≈ 158 µM)
MIC [3]: 0.78 µg/mL (≈ 1.23 µM)
MIC [4]: 100 µg/mL (≈ 158 µM)
MIC (Pseudomonas cepacia 2961): 100 µg/mL (≈ 158 µM)
MIC [5]: 3.1 µg/mL (≈ 4.88 µM)
MIC (Staphylococcus aureus 45): 1.56 µg/mL (≈ 2.46 µM)
MIC [6]: 1.56 µg/mL (≈ 2.46 µM)
MIC [7]: 3.1 µg/mL (≈ 4.88 µM)
MIC [8]: 1.56 µg/mL (≈ 2.46 µM)
MIC [9]: 3.1 µg/mL (≈ 4.88 µM)
MIC [10]: 3.1 µg/mL (≈ 4.88 µM)
MIC [11]: 0.39 µg/mL (≈ 0.614 µM)
MIC [12]: 0.2 µg/mL (≈ 0.315 µM)
MIC [13]: 1.56 µg/mL (≈ 2.46 µM)
MIC [14]: 0.2 µg/mL (≈ 0.315 µM)
MIC [15]: 0.39 µg/mL (≈ 0.614 µM)
ED50 (KB cells): 200 to 300 µg/mL
